Results as given in PubChem BioAssay AID248 (DTP/NCI, 2004).
Several values for one entry are separate records, joined by “and”; a condition that tells them apart may be missing. Equal values may be shown once. Inconclusive results and toxic doses are left out. No stated cut-off is given here; in the data, active means T/C of 150% or more; inactive means T/C below 125%. Peptide text beside a SMILES is read from it. * marks the point of attachment. Boc = CC(C)(C)OC(=O)*; OtBu = CC(C)(C)O*; NHNH2 = NN*

System: L1210 leukemia ip in BDF1 mice, survival T/C
Assay: NCI In Vivo Anticancer Drug Screen. Data for tumor model L1210 Leukemia (intraperitoneal) in B6D2F1 (BDF1) mice
Details: endpoint: mean survival time, higher = longer survival
Outline: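 Tumor cells were implanted, animals were treated, and survival was followed. The result divides the treated measurement by the vehicle-control measurement.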

[1] = dose: 100.0 mg/kg/injection, schedule: Q01DX009 (ip), vehicle: saline with Tween-80
[2] = dose: 200.0 mg/kg/injection, schedule: Q01DX009 (ip), vehicle: saline with Tween-80
[3] = dose: 400.0 mg/kg/injection, schedule: Q01DX009 (ip), vehicle: saline with Tween-80
[4] = dose: 100.0 mg/kg/injection, schedule: Q01DX009 (ip), vehicle: saline
[5] = dose: 100.0 mg/kg/injection, schedule: Q04DX003 (ip), vehicle: saline
[6] = dose: 200.0 mg/kg/injection, schedule: Q01DX009 (ip), vehicle: saline
[7] = dose: 200.0 mg/kg/injection, schedule: Q04DX003 (ip), vehicle: saline
[8] = dose: 400.0 mg/kg/injection, schedule: Q04DX003 (ip), vehicle: saline
[9] = dose: 100.0 mg/kg/injection, schedule: Q01DX009 (ip), vehicle: Klucel (hydroxypropylcellulose) (HPC)
[10] = dose: 200.0 mg/kg/injection, schedule: Q01DX009 (ip), vehicle: Klucel (hydroxypropylcellulose) (HPC)
[11] = dose: 400.0 mg/kg/injection, schedule: Q01DX009 (ip), vehicle: Klucel (hydroxypropylcellulose) (HPC)
[12] = dose: 100.0 mg/kg/injection, schedule: Q04DX002 (ip), vehicle: Klucel (hydroxypropylcellulose) (HPC)
[13] = dose: 200.0 mg/kg/injection, schedule: Q04DX002 (ip), vehicle: Klucel (hydroxypropylcellulose) (HPC)
[14] = dose: 100.0 mg/kg/injection, schedule: Q04DX003 (ip), vehicle: Klucel (hydroxypropylcellulose) (HPC)
[15] = dose: 200.0 mg/kg/injection, schedule: Q04DX003 (ip), vehicle: Klucel (hydroxypropylcellulose) (HPC)
[16] = dose: 400.0 mg/kg/injection, schedule: Q04DX003 (ip), vehicle: Klucel (hydroxypropylcellulose) (HPC)

Measured: T/C

O=C(O)c1c(Cl)c(Cl)c(Cl)c(Cl)c1Cl
inactive: [1] 103 % of control | [2] 106 % of control | [3] 112 % of control

O=S1(=O)CS(=O)(=O)CS(=O)(=O)C1
inactive: dose: 100.0 mg/kg/injection, schedule: Q04DX002 (ip), vehicle: saline 108 % of control | dose: 200.0 mg/kg/injection, schedule: Q04DX002 (ip), vehicle: saline 119 % of control | dose: 400.0 mg/kg/injection, schedule: Q04DX002 (ip), vehicle: saline 101 % of control

CN/N=C/c1ccc([N+](=O)[O-])cc1
inactive: dose: 25.0 mg/kg/injection, schedule: Q04DX002 (ip), vehicle: DMSO 96 % of control | dose: 50.0 mg/kg/injection, schedule: Q04DX002 (ip), vehicle: DMSO 96 % of control | dose: 100.0 mg/kg/injection, schedule: Q04DX002 (ip), vehicle: DMSO 96 % of control and 98 % of control | dose: 200.0 mg/kg/injection, schedule: Q04DX002 (ip), vehicle: DMSO 88 % of control

Cc1cc(O)c2c(c1)C(=O)C13C(=C2O)C(=O)C2C(O)C1C1C(O)C3C(=O)C3=C(O)c4c(O)cc(C)cc4C(=O)C321 (stereo not given)
inactive: dose: 20.0 mg/kg/injection, schedule: Q04DX003 (ip), vehicle: saline with Tween-80 107 % of control | dose: 40.0 mg/kg/injection, schedule: Q04DX003 (ip), vehicle: saline with Tween-80 100 % of control | dose: 80.0 mg/kg/injection, schedule: Q04DX003 (ip), vehicle: saline with Tween-80 102 % of control

Cc1cc(N(C)C)cc(C)c1C(=Nc1ccc(N=C(NO)c2c(C)cc(N(C)C)cc2C)cc1)NO
inactive: dose: 100.0 mg/kg/injection, schedule: Q01DX001 (ip), vehicle: saline 97 % of control | dose: 200.0 mg/kg/injection, schedule: Q01DX001 (ip), vehicle: saline 109 % of control

COc1ccc(/C=C/C(=O)c2ccc3c(c2)OCO3)cc1O
inactive: dose: 50.0 mg/kg/injection, schedule: Q01DX009 (ip), vehicle: saline 100 % of control | [4] 93 % of control | [5] 93 % of control | [6] 100 % of control | [7] 97 % of control | dose: 300.0 mg/kg/injection, schedule: Q01DX009 (ip), vehicle: saline 120 % of control | [8] 87 % of control

COc1ccc(OC)c(NC(=O)N(C)CCC#N)c1
inactive: [9] 106 % of control | [10] 101 % of control | [11] 106 % of control

NNC(=O)CNc1cccc(F)c1
inactive: [12] 105 % of control | [13] 119 % of control

c1ccc2sc(SSN3CCSCC3)nc2c1
inactive: dose: 75.0 mg/kg/injection, schedule: Q04DX003 (ip), vehicle: Klucel (hydroxypropylcellulose) (HPC) 102 % of control | dose: 100.0 mg/kg/injection, schedule: Q01DX001 (ip), vehicle: other 98 % of control | dose: 150.0 mg/kg/injection, schedule: Q04DX003 (ip), vehicle: Klucel (hydroxypropylcellulose) (HPC) 100 % of control | dose: 200.0 mg/kg/injection, schedule: Q01DX001 (ip), vehicle: other 92 % of control | dose: 300.0 mg/kg/injection, schedule: Q04DX003 (ip), vehicle: Klucel (hydroxypropylcellulose) (HPC) 89 % of control | dose: 400.0 mg/kg/injection, schedule: Q01DX001 (ip), vehicle: other 97 % of control

CC(NCCOc1ccccc1)c1ccccc1 (stereo not given)
inactive: dose: 100.0 mg/kg/injection, schedule: Q04DX002 (ip), vehicle: saline with Tween-80 108 % of control | dose: 200.0 mg/kg/injection, schedule: Q04DX002 (ip), vehicle: saline with Tween-80 105 % of control

COC(=O)c1cc(NC(=O)Nc2cccc(C(C)=O)c2)cc(C(=O)OC)c1
inactive: [9] 98 % of control | [10] 102 % of control | [11] 93 % of control

CCOC(=O)/C=C/c1nc(N)[nH]c(=O)c1CCCCc1ccccc1
inactive: dose: 50.0 mg/kg/injection, schedule: Q01DX001 (ip), vehicle: Klucel (hydroxypropylcellulose) (HPC) 122 % of control | dose: 100.0 mg/kg/injection, schedule: Q01DX001 (ip), vehicle: Klucel (hydroxypropylcellulose) (HPC) 119 % of control | dose: 200.0 mg/kg/injection, schedule: Q01DX001 (ip), vehicle: Klucel (hydroxypropylcellulose) (HPC) 111 % of control

O=C(Nc1ccc(Cl)cc1)Oc1ccccn1
inactive: [1] 93 % of control | [2] 91 % of control | [3] 91 % of control

CCN(CCOC(=O)Nc1cccc(C(C)=O)c1)c1ccccc1
inactive: [9] 108 % of control | [10] 104 % of control | [11] 106 % of control

Nc1ccc(C(=O)O)c(C(=O)O)c1
inactive: [1] 101 % of control | [14] 100 % of control | [2] 91 % of control | [15] 98 % of control | [16] 102 % of control

O=c1cc(Br)c(=O)c2cc(Br)cc(Br)c2[nH]1
inactive: dose: 25.0 mg/kg/injection, schedule: Q01DX009 (ip), vehicle: Klucel (hydroxypropylcellulose) (HPC) 95 % of control | dose: 50.0 mg/kg/injection, schedule: Q01DX009 (ip), vehicle: Klucel (hydroxypropylcellulose) (HPC) 98 % of control | [9] 90 % of control | [14] 98 % of control | [10] 87 % of control | [15] 106 % of control | [11] 89 % of control | [16] 88 % of control

O=C(CCCCC(=O)Nc1cc(C2=NCCN2)cc(C2N=CCN2)c1)Nc1cc(C2=NCCN2)cc(C2=NCCN2)c1 (stereo not given)
inactive: dose: 2.2 mg/kg/injection, schedule: Q01DX Z (ip), vehicle: methylcellulose (MC) 96 % of control | dose: 3.0 mg/kg/injection, schedule: Q01DX Z (ip), vehicle: methylcellulose (MC) 106 % of control | dose: 5.0 mg/kg/injection, schedule: Q01DX Z (ip), vehicle: carboxymethylcellulose (CMC) 120 % of control | dose: 5.0 mg/kg/injection, schedule: Q01DX Z (ip), vehicle: methylcellulose (MC) 101 % of control | dose: 9.0 mg/kg/injection, schedule: Q01DX Z (ip), vehicle: methylcellulose (MC) 87 % of control | dose: 10.0 mg/kg/injection, schedule: Q01DX Z (ip), vehicle: carboxymethylcellulose (CMC) 100 % of control | dose: 15.0 mg/kg/injection, schedule: Q01DX Z (ip), vehicle: carboxymethylcellulose (CMC) 94 % of control

CC(=O)Nc1cc2cc(Br)ccc2oc1=O
inactive: [9] 95 % of control | [10] 93 % of control

CCCCC(CC)CNC1CCCCC1 (stereo not given)
inactive: dose: 75.0 mg/kg/injection, schedule: Q01DX009 (ip), vehicle: Klucel (hydroxypropylcellulose) (HPC) 98 % of control | [12] 101 % of control | dose: 150.0 mg/kg/injection, schedule: Q01DX009 (ip), vehicle: Klucel (hydroxypropylcellulose) (HPC) 101 % of control | [13] 97 % of control

CN1CCCC(=O)NC1=O
inactive: [4] 96 % of control | [5] 104 % of control | [6] 97 % of control | [7] 98 % of control | dose: 400.0 mg/kg/injection, schedule: Q01DX009 (ip), vehicle: saline 102 % of control | [8] 95 % of control

CCC(C)C(NC(=O)CNC(=O)OC(C)(C)C)C(=O)NC(C(=O)NC(CCC(=O)OC(C)(C)C)C(=O)NN)C(C)C (stereo not given) (Boc-GIVE(OtBu)-NHNH2; configuration not given here)
inactive: dose: 75.0 mg/kg/injection, schedule: Q01DX001 (ip), vehicle: saline sonified 100 % of control | dose: 150.0 mg/kg/injection, schedule: Q01DX001 (ip), vehicle: saline sonified 92 % of control | dose: 300.0 mg/kg/injection, schedule: Q01DX001 (ip), vehicle: saline sonified 106 % of control

CCCCCCCCOc1ccc(/C=N\N=C\c2ccc(OCCCCCCCC)cc2)cc1
inactive: [1] 105 % of control | [2] 91 % of control | [3] 92 % of control

C/C(=N\Nc1cccc(N)c1)c1ccccc1
inactive: dose: 25.6 mg/kg/injection, schedule: Q04DX002 (ip), vehicle: saline with Tween-80 89 % of control | dose: 64.0 mg/kg/injection, schedule: Q04DX002 (ip), vehicle: saline with Tween-80 89 % of control

Cc1ccc(S(=O)(=O)NC(CCl)=NCC23CC4CC(CC(C4)C2)C3)cc1
inactive: dose: 31.3 mg/kg/injection, schedule: Q04DX002 (ip), vehicle: Klucel (hydroxypropylcellulose) (HPC) 113 % of control | dose: 62.5 mg/kg/injection, schedule: Q04DX002 (ip), vehicle: Klucel (hydroxypropylcellulose) (HPC) 94 % of control | dose: 125.0 mg/kg/injection, schedule: Q04DX002 (ip), vehicle: Klucel (hydroxypropylcellulose) (HPC) 94 % of control
